Test results as given in ChEMBL document CHEMBL4765362, “Thirty Years of HDAC Inhibitors: 2020 Insight and Hindsight” (J Med Chem, 2020).

Assays:
[1] = molecular target: T1, Polyamine deacetylase HDAC10 (Homo sapiens, UniProt Q969S8); test: Inhibition of HDAC10 (unknown origin)
T1 sequence (Q969S8 whole entry): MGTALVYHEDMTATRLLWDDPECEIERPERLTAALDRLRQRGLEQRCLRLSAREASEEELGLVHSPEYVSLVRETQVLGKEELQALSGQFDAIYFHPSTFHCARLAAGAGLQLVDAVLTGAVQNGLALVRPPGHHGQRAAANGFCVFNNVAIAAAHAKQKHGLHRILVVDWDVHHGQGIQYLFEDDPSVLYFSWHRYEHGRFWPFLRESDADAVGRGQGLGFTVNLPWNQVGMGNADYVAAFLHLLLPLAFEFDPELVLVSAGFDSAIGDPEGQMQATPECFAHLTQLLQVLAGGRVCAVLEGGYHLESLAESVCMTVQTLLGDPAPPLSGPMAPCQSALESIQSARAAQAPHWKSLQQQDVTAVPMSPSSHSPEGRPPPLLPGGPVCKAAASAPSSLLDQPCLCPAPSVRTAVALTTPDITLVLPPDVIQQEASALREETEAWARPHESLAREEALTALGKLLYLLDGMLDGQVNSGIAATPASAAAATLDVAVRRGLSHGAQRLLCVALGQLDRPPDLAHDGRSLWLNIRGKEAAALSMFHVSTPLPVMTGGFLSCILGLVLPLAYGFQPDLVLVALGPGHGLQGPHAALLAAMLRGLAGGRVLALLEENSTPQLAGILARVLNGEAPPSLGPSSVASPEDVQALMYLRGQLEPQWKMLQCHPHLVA

[2] = molecular target: T2, Protein deacetylase HDAC6 (Homo sapiens, UniProt Q9UBN7); test: Inhibition of HDAC6 (unknown origin) using p53 residues (379 to 382)(RHKK(Ac)-AMC) as substrate by fluorescent method
T2 sequence (Q9UBN7 whole entry): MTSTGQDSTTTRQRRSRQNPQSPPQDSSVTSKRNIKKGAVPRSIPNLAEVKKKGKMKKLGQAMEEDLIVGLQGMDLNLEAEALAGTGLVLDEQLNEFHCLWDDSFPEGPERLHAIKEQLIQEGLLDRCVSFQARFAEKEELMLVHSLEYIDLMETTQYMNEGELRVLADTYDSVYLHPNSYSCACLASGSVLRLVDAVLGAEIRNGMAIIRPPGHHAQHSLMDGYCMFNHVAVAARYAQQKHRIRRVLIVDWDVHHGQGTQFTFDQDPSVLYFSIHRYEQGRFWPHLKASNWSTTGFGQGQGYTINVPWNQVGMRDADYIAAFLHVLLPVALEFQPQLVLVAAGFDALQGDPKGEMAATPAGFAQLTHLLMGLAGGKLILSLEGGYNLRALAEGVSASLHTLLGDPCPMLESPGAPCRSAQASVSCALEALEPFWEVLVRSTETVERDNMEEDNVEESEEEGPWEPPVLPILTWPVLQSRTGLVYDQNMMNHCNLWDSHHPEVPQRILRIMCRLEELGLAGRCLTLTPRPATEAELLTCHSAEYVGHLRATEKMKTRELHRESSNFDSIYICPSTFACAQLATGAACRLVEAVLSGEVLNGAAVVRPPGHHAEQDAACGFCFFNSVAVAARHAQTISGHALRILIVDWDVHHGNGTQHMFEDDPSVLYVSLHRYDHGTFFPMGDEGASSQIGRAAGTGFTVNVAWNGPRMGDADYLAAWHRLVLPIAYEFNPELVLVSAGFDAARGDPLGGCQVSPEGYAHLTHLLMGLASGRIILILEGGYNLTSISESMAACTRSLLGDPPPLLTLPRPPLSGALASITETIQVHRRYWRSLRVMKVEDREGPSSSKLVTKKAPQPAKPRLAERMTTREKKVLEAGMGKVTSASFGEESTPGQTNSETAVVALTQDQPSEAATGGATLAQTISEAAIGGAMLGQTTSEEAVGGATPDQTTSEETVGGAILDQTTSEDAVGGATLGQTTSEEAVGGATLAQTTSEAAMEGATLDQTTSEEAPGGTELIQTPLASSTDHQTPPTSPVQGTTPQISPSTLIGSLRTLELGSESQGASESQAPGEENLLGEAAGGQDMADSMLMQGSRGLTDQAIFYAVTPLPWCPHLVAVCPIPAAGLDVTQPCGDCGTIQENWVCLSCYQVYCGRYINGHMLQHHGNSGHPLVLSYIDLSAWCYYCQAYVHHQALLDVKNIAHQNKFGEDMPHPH

| SMILES | IC50 [1] | IC50 [2] |
| --- | --- | --- |
| CCCCCCCCCCCCCCCCNNC(=O)c1cccs1 | > 10 µM | – |
| Cn1cc(-c2ccc(S(=O)(=O)n3ccc(/C=C/C(=O)Nc4ccccc4N)c3)cc2)cn1 [DOMATINOSTAT] | – | > 10 µM |
